# From US20240374740A1, “POLY AMPHIPHILIC COMPLEXES FOR THE DELIVERY OF A HYDROPHOBIC ACTIVE AGENT, COMPOSITIONS AND METHODS” (Université de Liège, priority 2021, published 2024)
# What was measured:
# [1] = free drug; cited from earlier work
# [2] = tested on: plasma proteins; settings: in vivo; cited from earlier work
# [3] = tested on: 3D7 cells synchronized at ring stage; assay: In vitro antimalarial growth inhibition assay (GIA), flow cytometry after 48 h; type: cell-based, P. falciparum; settings: Plasmodium falciparum, 3D7, 48 h
# Experimental: Since P. falciparum I usually asynchronous during in vitro culture, the generation of highly synchronized parasite cultures is requested to investigate their pharmacological properties in vitro. […] Samples of the PACs were incubated with the cells for 48 h and then parasitemia was evaluated by flow cytometry after labelling parasite nuclei with fluorescence (growth inhibition assay, GIA).
# PACs loaded with atovaquone were analysed with 3D7 cells synchronized at ring stage. Samples were incubated with the cells for 48 h and then parasitemia was evaluated by flow cytometry after labelling parasite nuclei with fluorescence (growth inhibition assay, GIA). The pharmacological activity of atovaquone is expressed in terms of drug concentration needed to inhibit 50% of the cell population (IC50) (FIG. 9).
# [4] = cited from earlier work; for solubility in water: free drug, 25° C.
# [5] = Evolution with time of optical density (Do at 405 nm) of curcumin solutions in PBS pH 7.4 at 37° C.; type: physicochemical; settings: PBS pH 7.4, 37° C.
# [6] = Dynamic Light Scattering (DLS) mean size of PACs; type: physicochemical; settings: ibuprofen formulations by direct dissolution, 2 h after preparation
molecule,measurement,setting,value
O=C1C(O)=C([C@H]2CC[C@H](c3ccc(Cl)cc3)CC2)C(=O)c2ccccc21 [Atovaquone],LogP,[1],5.8
same,bound to plasma proteins,[2],99.9%
same,IC50,[3],0.00084 µM
same,solubility class in water (free drug),[4],practically insoluble
"COc1cc(/C=C/C(=O)CC(=O)/C=C/c2ccc(O)c(OC)c2)ccc1O [Curcumin, curcumin]",macroscopic aspect,"curcumin 5 mg/ml, direct dissolution in aqueous phase (Example 3)",slightly yellow and less turbid suspension
same,IC50,[3],14.2 µM
same,solubility class in water (free drug),[4],practically insoluble
same,solubility in water,[4],< 1 µg/mL
same,optical density (Do at 405 nm),"[5]; With BSA (1%), curcumin 2 μg/mL, 1 h",0.275
same,optical density (Do at 405 nm),"[5]; With BSA (1%), curcumin 2 μg/mL, 24 h",0.214
same,optical density (Do at 405 nm),"[5]; With BSA (1%), curcumin 2 μg/mL, 96 h",0.437
same,optical density (Do at 405 nm),"[5]; With BSA (1%), curcumin 10 μg/mL, 1 h",1.102
same,optical density (Do at 405 nm),"[5]; With BSA (1%), curcumin 10 μg/mL, 24 h",1.007
same,optical density (Do at 405 nm),"[5]; With BSA (1%), curcumin 10 μg/mL, 96 h",0.701
same,optical density (Do at 405 nm),"[5]; With BSA (1%), curcumin 20 μg/mL, 1 h",1.875
same,optical density (Do at 405 nm),"[5]; With BSA (1%), curcumin 20 μg/mL, 24 h",1.508
same,optical density (Do at 405 nm),"[5]; With BSA (1%), curcumin 20 μg/mL, 96 h",0.899
same,optical density (Do at 405 nm),"[5]; Without BSA, curcumin 2 μg/mL, 1 h",0.068
same,optical density (Do at 405 nm),"[5]; Without BSA, curcumin 2 μg/mL, 24 h",0.019
same,optical density (Do at 405 nm),"[5]; Without BSA, curcumin 2 μg/mL, 96 h",0.001
same,optical density (Do at 405 nm),"[5]; Without BSA, curcumin 10 μg/mL, 1 h",0.321
same,optical density (Do at 405 nm),"[5]; Without BSA, curcumin 10 μg/mL, 24 h",0.097
same,optical density (Do at 405 nm),"[5]; Without BSA, curcumin 10 μg/mL, 96 h",0.064
same,optical density (Do at 405 nm),"[5]; Without BSA, curcumin 20 μg/mL, 1 h",0.717
same,optical density (Do at 405 nm),"[5]; Without BSA, curcumin 20 μg/mL, 24 h",0.253
same,optical density (Do at 405 nm),"[5]; Without BSA, curcumin 20 μg/mL, 96 h",0.113
CC(C)Cc1ccc(C(C)C(=O)O)cc1 (stereo not shown) [Ibuprofen],Cumulant DLS diameter,[6],">1,000,000 nm"
same,Macroscopic aspect 2 h after dissolution,"ibuprofen 5 mg/mL, polymer 45 mg/mL, direct dissolution in water, room temperature",Macroscopic crystals
same,solubility in water,[4],0.21 µg/mL
CCCSc1nc(N[C@@H]2C[C@H]2c2ccc(F)c(F)c2)c2nnn([C@@H]3C[C@H](OCCO)[C@@H](O)[C@H]3O)c2n1 [Ticagrelor],LogP,[1],2.28
Ivermectin,LogP,[1],5.83
